Molecules are shown by their SMILES. In brackets after ≈: the same amount, converted by molar mass.

The values that follow come from ChEMBL document CHEMBL1857833, “Screening and optimization of specific chemical series against human African Trypanosomiasis (HAT)”.

A short description of series [1]: DNDI: Cytotoxicity against L929 mouse fibroblasts, CYTO-SP, 24 hour. The format is toxicity, cell-based. Particulars: mouse, L929 mouse fibroblasts.
Series [2] can be described thus: DNDI: Cytotoxicity against L929 mouse fibroblasts, 72 hour. The format is toxicity, cell-based. Particulars: mouse, L929 mouse fibroblasts.
For another series, the system named is Trypanosoma brucei. Put plainly: DNDI: Inhibition of Human African Trypanosomiasis, SBRI 427, in vitro. The format is functional, organism-based. Particulars: Trypanosoma brucei, SBRI 427; read-out: IC50.

Molecule `CCCC(CCC)NCc1coc(-c2ccc(Cl)cc2)n1` showed an IC50 at 24 h in series [1] of 38.4 µg/mL (≈ 125 µM). The half-inhibitory concentration (IC50) at 72 h in series [2] is 5.72 µg/mL (≈ 18.6 µM). Further, in the series with Trypanosoma brucei, the IC50 came out at 2.08 µg/mL (≈ 6.78 µM).

`C[C@H](NCc1coc(-c2ccc(Cl)cc2)n1)C1CCCCC1`: the IC50 at 24 h in series [1] is > 50 µg/mL. Moreover, the IC50 at 72 h in series [2] was < 3.13 µg/mL. The IC50 in the series with Trypanosoma brucei is 2.29 µg/mL (≈ 7.18 µM).

In series [1], `CCCCCC(C)NCc1coc(-c2ccccc2O)n1` (centres undefined) had a concentration for half-maximal inhibition (IC50) at 24 h of 24 µg/mL (≈ 83.2 µM). In series [2], this molecule displayed a half-inhibitory concentration (IC50) at 72 h of 7.32 µg/mL (≈ 25.4 µM). For the same molecule, in the series with Trypanosoma brucei, the IC50 worked out at 3.56 µg/mL (≈ 12.3 µM).

Molecule `CCCCCC(C)NCc1coc(-c2cccc(F)c2)n1` (centres undefined) showed a half-inhibitory concentration (IC50) at 24 h in series [1] of 19 µg/mL (≈ 65.4 µM). In addition, in series [2], half-maximal inhibition (IC50 at 72 h) required 7.19 µg/mL (≈ 24.8 µM). In addition, in the series with Trypanosoma brucei, the IC50 is 2.14 µg/mL (≈ 7.37 µM).

For `Clc1ccc(-c2nc(CNc3ccccc3)co2)cc1`, the IC50 at 24 h in series [1] is > 50 µg/mL. In series [2], this molecule displayed an IC50 at 72 h of 10.5 µg/mL (≈ 36.9 µM). The 50% inhibitory concentration (IC50) in the series with Trypanosoma brucei is > 5 µg/mL.

For `CCCCCC(C)NCc1coc(-c2cc(F)ccc2F)n1` (centres undefined), in series [1], the half-maximal inhibitory concentration (IC50) at 24 h came out at 36 µg/mL (≈ 117 µM). This molecule also came in with an IC50 at 72 h in series [2] of 13.2 µg/mL (≈ 42.7 µM). Besides, the concentration for half-maximal inhibition (IC50) in the series on Trypanosoma brucei amounted to 2.69 µg/mL (≈ 8.72 µM).

Turning to `CCCCCC(C)NCc1ccccc1-c1ccccc1` (centres undefined), the half-inhibitory concentration (IC50) at 24 h in series [1] is > 50 µg/mL. Besides, the IC50 at 72 h in series [2] worked out at 4.68 µg/mL (≈ 16.6 µM). For the same molecule, the half-inhibitory concentration (IC50) with Trypanosoma brucei turned out to be 1.35 µg/mL (≈ 4.8 µM).

On to `CCOc1ccc(-c2nc(CNC3C[C@@H]4C[C@H]([C@@H]3C)C4(C)C)co2)cc1` (some centres undefined), for which the IC50 at 24 h in series [1] was > 50 µg/mL. The same molecule showed an IC50 at 72 h in series [2] of 3.64 µg/mL (≈ 10.3 µM). Moreover, the half-inhibitory concentration (IC50) with Trypanosoma brucei was > 5 µg/mL.

`CCOc1ccc(-c2nc(CCl)co2)cc1`: in series [1], the IC50 at 24 h was > 5 µg/mL. In series [2], this molecule gave a 50% inhibitory concentration (IC50) at 72 h of 25.9 µg/mL (≈ 109 µM). In addition, in the series on Trypanosoma brucei, the IC50 stood at 2.19 µg/mL (≈ 9.21 µM).

Regarding `CCCCCC(C)NCc1coc(-c2cccc(OC(F)(F)F)c2)n1` (centres undefined), in series [1], the IC50 at 24 h is > 50 µg/mL. This molecule yielded a half-inhibitory concentration (IC50) at 72 h in series [2] of 6.48 µg/mL (≈ 18.2 µM). Besides, the IC50 with Trypanosoma brucei is 1.45 µg/mL (≈ 4.07 µM).

Turning to `CCCCCC(C)NCc1coc(-c2ccc(F)c(F)c2)n1` (centres undefined), the IC50 at 24 h in series [1] came out at 37 µg/mL (≈ 120 µM). The same molecule showed a 50% inhibitory concentration (IC50) at 72 h in series [2] of 6.34 µg/mL (≈ 20.6 µM). The IC50 in the series on Trypanosoma brucei is 1.74 µg/mL (≈ 5.64 µM).

Take `Clc1ccsc1-c1nc(CNC2[C@H]3C[C@@H]4C[C@@H](C[C@H]2C4)C3)co1` (some centres undefined): in series [1], the IC50 at 24 h was > 50 µg/mL. In series [2], this molecule showed an IC50 at 72 h of 10.6 µg/mL (≈ 30.3 µM). Besides, in the series on Trypanosoma brucei, the IC50 is > 5 µg/mL.

With `CCCCCC(C)NCc1coc(-c2ccc(F)cc2F)n1` (centres undefined), the IC50 at 24 h in series [1] is > 50 µg/mL. Also, the 50% inhibitory concentration (IC50) at 72 h in series [2] was found to be 12.4 µg/mL (≈ 40.3 µM). The half-maximal inhibitory concentration (IC50) in the series with Trypanosoma brucei stood at 2.97 µg/mL (≈ 9.63 µM).

`CCCCCC(C)NCc1coc(-c2ccc3ccccc3c2)n1` (centres undefined) displayed an IC50 at 24 h in series [1] of 17 µg/mL (≈ 52.7 µM). Further, half-maximal inhibition in series [2] (IC50 at 72 h) required 5.65 µg/mL (≈ 17.5 µM). The IC50 in the series with Trypanosoma brucei worked out at 1.09 µg/mL (≈ 3.38 µM).

For the molecule `Clc1ccc(-c2nc(CN[C@]34C[C@H]5C[C@H](C[C@H](C5)C3)C4)co2)cc1`, the IC50 at 24 h in series [1] is > 50 µg/mL. In addition, in series [2], the 50% inhibitory concentration (IC50) at 72 h turned out to be 37.6 µg/mL (≈ 110 µM). Further, the IC50 in the series with Trypanosoma brucei is > 5 µg/mL.

For the molecule `CCCCCC(C)NC(=O)c1coc(-c2ccccc2)n1` (centres undefined), in series [1], the IC50 at 24 h is > 50 µg/mL. Also, in series [2], the IC50 at 72 h was found to be 27.2 µg/mL (≈ 95 µM). Moreover, in the series with Trypanosoma brucei, the 50% inhibitory concentration (IC50) was > 5 µg/mL.

For `CCCCCC(C)NCc1nc(-c2ccccc2)no1` (centres undefined), the IC50 at 24 h in series [1] was determined as 50 µg/mL (≈ 183 µM). Moreover, the midpoint of inhibition in series [2], the IC50 at 72 h, lay at 30.8 µg/mL (≈ 113 µM). Besides, in the series on Trypanosoma brucei, the IC50 is > 5 µg/mL.

As to `CCOc1ccc(-c2nc(CN(C)Cc3coc(-c4ccc(OCC)cc4)n3)co2)cc1`, the IC50 at 24 h in series [1] was > 50 µg/mL. Further, in series [2], the 50% inhibitory concentration (IC50) at 72 h is > 50 µg/mL. Besides, the 50% inhibitory concentration (IC50) with Trypanosoma brucei was > 5 µg/mL.

With `CN(Cc1coc(-c2ccc(Cl)cc2)n1)C1CCCCC1`, the half-inhibitory concentration (IC50) at 24 h in series [1] was > 50 µg/mL. This molecule showed a concentration for half-maximal inhibition (IC50) at 72 h in series [2] of 11.4 µg/mL (≈ 37.4 µM). Further, in the series on Trypanosoma brucei, the half-maximal inhibitory concentration (IC50) is 2.7 µg/mL (≈ 8.86 µM).

With `CCCCCC(C)NCc1noc(-c2ccccc2)n1` (centres undefined), the 50% inhibitory concentration (IC50) at 24 h in series [1] came to 50 µg/mL (≈ 183 µM). In series [2], this molecule gave an IC50 at 72 h of 30.7 µg/mL (≈ 112 µM). Besides, the concentration for half-maximal inhibition (IC50) in the series on Trypanosoma brucei is > 5 µg/mL.

In series [1], `CCCCCC(C)NCc1csc(-c2ccccc2)n1` (centres undefined) gave an IC50 at 24 h of 18 µg/mL (≈ 62.4 µM). Besides, in series [2], the IC50 at 72 h was determined as 4.45 µg/mL (≈ 15.4 µM). In addition, the IC50 in the series with Trypanosoma brucei was determined as 2.64 µg/mL (≈ 9.15 µM).

As for `CC1(C)[C@H]2CC[C@@H](CNCc3ccc(-c4ccccc4)s3)[C@@H]1C2`, the IC50 at 24 h in series [1] is > 50 µg/mL. Also, the concentration for half-maximal inhibition (IC50) at 72 h in series [2] is 6.63 µg/mL (≈ 20.4 µM). In addition, in the series on Trypanosoma brucei, the IC50 turned out to be 1.02 µg/mL (≈ 3.13 µM).

Take `Clc1ccc(-c2nc(CNC3CCCC3)co2)cc1`: the 50% inhibitory concentration (IC50) at 24 h in series [1] is > 50 µg/mL. Also, in series [2], the IC50 at 72 h came to 12.9 µg/mL (≈ 46.8 µM). In the series on Trypanosoma brucei, the IC50 amounted to 4.78 µg/mL (≈ 17.3 µM).

Consider `CCOc1ccc(-c2nc(CNCc3ccccc3)co2)cc1`, for which, in series [1], the IC50 at 24 h was > 50 µg/mL. Moreover, in series [2], the midpoint of inhibition, the IC50 at 72 h, lay at 18.1 µg/mL (≈ 58.6 µM). Also, in the series on Trypanosoma brucei, the half-inhibitory concentration (IC50) is > 5 µg/mL.

Regarding `Clc1ccc(-c2nc(CN3CCCCC3)co2)cc1`, the concentration for half-maximal inhibition (IC50) at 24 h in series [1] is > 50 µg/mL. This molecule yielded an IC50 at 72 h in series [2] of 34.4 µg/mL (≈ 124 µM). The IC50 with Trypanosoma brucei is > 5 µg/mL.

Turning to `CCCCCC(C)NCc1coc(-c2ccccc2Cl)n1` (centres undefined), in series [1], the IC50 at 24 h came out at 17 µg/mL (≈ 55.4 µM). In series [2], this molecule had a half-inhibitory concentration (IC50) at 72 h of 7.17 µg/mL (≈ 23.4 µM). The IC50 in the series with Trypanosoma brucei worked out at 2.42 µg/mL (≈ 7.89 µM).

As for `CCCCCC(C)NCc1cc(-c2ccccc2)on1` (centres undefined), half-maximal inhibition in series [1] (IC50 at 24 h) was put at 32 µg/mL (≈ 117 µM). The molecule further had an IC50 at 72 h in series [2] of 12.9 µg/mL (≈ 47.3 µM). In the series with Trypanosoma brucei, the IC50 was 5 µg/mL (≈ 18.4 µM).

Take `CCOc1ccc(-c2nc(CN[C@]34C[C@H]5C[C@H](C[C@H](C5)C3)C4)co2)cc1`: the IC50 at 24 h in series [1] is > 50 µg/mL. In addition, it took 28.4 µg/mL (≈ 80.5 µM) to reach half-maximal inhibition in series [2] (IC50 at 72 h). Moreover, the concentration for half-maximal inhibition (IC50) with Trypanosoma brucei is > 5 µg/mL.

As a reminder, the IC50 is the concentration needed to halve the response being measured.
